Common to all, as to assay type: cell-based
Series [1] deals with Human Peripheral Blood Lymphocytes. In words: MTT toxicity assay on normal cells. As to conditions: 48 hours. The method, then:
Toxicity studies of compounds of the present invention on normal cells The toxicity study was performed on Human Peripheral Blood Lymphocytes obtained differential centrifugation of defibrinated blood. MTT assay for compound of the present invention was performed to determine its toxicity. MTT assay is a simple and sensitive assay where, metabolic reducing activity of the cells is measured. It was carried out in the following manner.
A required volume of cell suspension was prepared as per the cell plating efficiency. 200 μl of prepared cell suspension was added in labelled 96 well plates and the plates were placed in an incubator for 18-24 hours at 37° C. and 5% CO2. Then, 2 μl of respective compound dilution was added and the plates were placed in the incubator for 48 hours at 37° C. and 5% CO2. The suspension was aspirated from the plates and 100 μl of working MTT solution (0.5 mg/ml MTT prepared from 5 mg/ml MTT stock in 1× complete media) was added. The plates were incubated in the incubator for 4 hours at 37° C. and 5% CO2. The plates were spinned down, supernatant removed, 200 μl DMSO was added, mixed gently and placed in the incubator for 10 minutes at 37° C. and 5% CO2. The absorbance at 570 nm was read and percentage viability and IC50 value of the compounds was calculated using regression analysis.
In general terms: Formazan colour is commonly taken as a measure of viable cells.

Series [2] can be described thus: Cytotoxicity by Hoechst 33342 / Sytox orange staining. As to conditions: African green monkey, Vero E6 cells. The protocol:
The assay was done in a 96 well plate format in 3 wells for each sample. 1×10e4 Vero E6 cells were plated per well and incubated at 37° C. overnight for monolayer formation. Next day, cells were incubated with the test substance (TS) at the indicated concentration with final DMSO concentration being 0.5%. The Control cells were incubated with 0.5% DMSO only. 24 and 48 hours later, cells were stained with Hoechst 33342 and Sytox orange dye. Images were taken at 10×, 16 images per well, which covers 90% of the well area using ImageXpress Microconfocal (Molecular Devices). Hoechst 33342 nucleic acid stain is a popular cell-permanent nuclear counterstain that emits blue fluorescence when bound to dsDNA. It stains all the live and dead cells. Sytox orange dye stains the nucleic acid in the cells with compromised membranes. This stain is an indicator of cell death. First, the software will count total number of cells in the Hoechst image. In the Sytox image, it will count, among Hoechst positive cells, how many cells are positive for Sytox.

A further series has as its system SARS-CoV-2. The experiment in a line: Anti SARS-CoV-2 IC50 estimation by qRT-PCR in VeroE6 cells. Conditions: Severe acute respiratory syndrome coronavirus 2, Vero C1008.

SMILES strings stand for the structures. Where two headings read alike, the source gives them in different places.

Usually viability stands for a read-out of living cells in per cent, often relative to untreated cells. In general, IC50 refers to the concentration needed to halve the response being measured.

On to `COC1COC(Oc2ccc(-c3ccc4c(c3)OCO4)c3ccccc23)C(O)C1OC` (stereo not drawn) [Compound of Formula E, 2-(1-(benzo[d][1,3]dioxol-5-yl)naphthalen-4-yloxy)-tetrahydro-4,5-dimethoxy-2H-pyran-3-ol], for which the “IC50 (μM)” value in series [1] is “No activity (Nontoxic)”. Moreover, the viability at 24 h, 10 µM in series [2] (24 hours, read-out: % Cell viability 24 hours) came out at 99.6%. For the same compound, the viability at 48 h, 10 µM in series [2] (48 hours, read-out: % Cell viability 48 hours) was 77.8%. Besides, the concentration for half-maximal inhibition (IC50) with SARS-CoV-2 (VeroE6, MOI 0.01, 48 hours, qRT-PCR E gene, read-out: IC50 value (μM) E gene) is 0.571 µM; in the series on SARS-CoV-2 (VeroE6, MOI 0.01, 48 hours, qRT-PCR N gene, read-out: IC50 value (μM) N gene), 0.586 µM; with SARS-CoV-2 (conclusion statement, read-out: anti-SARS-CoV-2 activity IC50) it was below 10 µM.
